Consider 16 molecules from PubChem BioAssay (NCI).

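Five compound concentrations were applied to cells in 96-well plates for 48 hours; endpoints were derived by simple linear interpolation of the resulting dose-response curve. TGI denotes the concentration required for complete inhibition of growth.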

Holding throughout (assay): growth of human tumour cells (NCI), 48 h
Test [1] relates to MDA-MB-435.
The subject of test [2] is SF-268 CNS.
Test [3] deals with SK-MEL-28 melanoma.
Test [4] relates to NCI/ADR-RES ovarian.
Test [5] deals with TK-10 renal.
Test [6] has as its system CAKI-1 renal.
Test [7] concerns NCI-H226 lung.
Test [8] has as its system EKVX NSCLC.
The test system of test [9] is ACHN renal.
Test [10] deals with SW-620 colon.
Test [11] deals with COLO 205 colon.
For test [12], the system named is HCT-15 colon.
The subject of test [13] is HS 578T breast.
The test system of test [14] is CCRF-CEM leukemia.
In test [15] the test system is SNB-19 CNS.
Test [16] has as its system K-562 leukemia.
In test [17] the test system is NCI-H460 lung.
Test [18] relates to RXF 393 renal.
Test [19] concerns HOP-92 NSCLC.

For the molecule `O=C(Oc1ccc(C(c2c(O)c3ccccc3oc2=O)c2c(O)c3ccccc3oc2=O)cc1)c1ccc(C(=O)c2ccccc2)cc1`, the TGI amounted to 42.3 µM in test [1]; 66.5 µM in [2]; 36.5 µM in [3]; 34.8 µM in test [4]; 37.8 µM in [5]; 57.4 µM in test [6]. The TGI in test [7] was 25.9 µM; in [8], 34.6 µM; in [9], 40.3 µM; in test [10], more than 100 µM; in [11], more than 100 µM; in test [12], 89.4 µM. For the same molecule, the TGI in test [13] is more than 100 µM; in test [14], 42.8 µM; in test [15] it was 37.2 µM; in test [16] it was 47.9 µM; in [17], 45.6 µM; in test [18] it was 83.6 µM.

On to `CC1=CP(=O)(OC(C)C)C=C(C)C1=C(Cl)Cl` (configuration not stated), for which the TGI was more than 100 µM in test [2]; more than 100 µM in [3]; more than 100 µM in test [5]; 87.2 µM in [7]; more than 100 µM in test [8]; more than 100 µM in test [9]. The TGI was more than 100 µM in test [10]; 35 µM in test [11]; 54.6 µM in test [19]; more than 100 µM in [12]; more than 100 µM in test [14]; more than 100 µM in test [15]. For the same molecule, the TGI in test [16], in test [17] and in [18] was more than 100 µM in each case.

Take `Cc1cc(N(CCC#N)CCC#N)ccc1/C(Sc1ccccc1)=C(\NC(=O)/C=C/c1ccccc1)C(=O)Sc1ccccc1`: the TGI in test [2] came out at 3.81 µM; in test [3], 18.5 µM; in test [5] it was 25.2 µM; in test [6], 12.1 µM; in [7] it was 10.7 µM; in test [8], 54.2 µM. Besides, the TGI in [9] is 18.7 µM; in test [10], 15.3 µM; in test [11], 7.71 µM; in [19] it was 15 µM; in [12], 26.4 µM; in test [14] it was 15.3 µM. The TGI is 38.2 µM in test [15], more than 58.7 µM in test [16], 23.4 µM in [17] and 4.5 µM in test [18].

On to `S=c1[nH]nc(COc2ccc(Cl)cc2)n1-c1ccccc1`, for which the TGI in test [1] is more than 100 µM; in test [2], more than 100 µM; in [3], more than 100 µM; in [4], more than 100 µM; in test [5], more than 100 µM; in test [6], 65.8 µM. The TGI in test [7], in test [8], in [9], in test [10], in test [11] and in test [19] was more than 100 µM in each case. Moreover, the TGI in test [12], in test [14], in test [15], in [16], in [17] and in test [18] was more than 100 µM in each case.

Take `O=C(O)CCC1C(=O)C2CCN1CC2` (configuration not stated): the TGI in [1], in [2], in test [3], in test [4], in test [5] and in test [6] was more than 100 µM in each case. Moreover, the TGI in [7], in test [8], in [9], in [10], in test [11] and in [12] was more than 100 µM each time. Moreover, the TGI in test [13], in [14], in test [15], in test [16], in [17] and in test [18] was more than 100 µM each time.

Turning to `[N-]=[N+]=NC1(Cc2ccccc2)C(=O)Nc2ccccc2C1=O` (configuration not stated), the TGI in test [2], in [3], in test [5], in [6], in [8] and in [9] was more than 100 µM in each case. Moreover, the TGI in test [10], in [11], in test [19], in test [12], in test [14] and in test [15] was more than 100 µM throughout. The TGI in [16] and in test [17] was more than 100 µM each time.

In the case of `COC1(OC)CCCCCCCCC(OC)(OC)CCCCCCCC1`, the TGI in test [1], in test [2], in [3], in test [4], in test [5] and in test [6] was more than 100 µM in each case. Besides, the TGI in [7], in test [8], in test [9], in test [10], in test [11] and in test [19] was more than 100 µM throughout. Also, the TGI in test [12], in test [13], in test [15], in [16], in [17] and in test [18] was more than 100 µM throughout.

Turning to `C#CC(O)/C=C/C(O)CCCC(O)CC#CC(O)C#CCCCCC(O)/C=C/CCCCCC(=O)CCCCCCCCCCCCCC(O)C(O)C#CC(=O)O` (configuration not stated), the TGI in test [1], in test [2], in test [3], in test [4], in test [5] and in test [6] was more than 25 µM throughout. Further, the TGI in test [7], in test [8], in test [9], in test [11], in test [19] and in test [12] was more than 25 µM in each case. Besides, the TGI in test [13], in test [14], in test [15], in test [16] and in [17] was more than 25 µM in each case.

In the case of `CCCN(CCCC(NC(C)=O)C(=O)NCc1ccccc1)C(=O)N(C)N=O` (configuration not stated), the TGI in test [2], in test [3], in test [5], in test [6], in [7] and in [8] was more than 100 µM each time. Also, the TGI in test [9], in test [10], in [11], in test [19], in test [12] and in test [14] was more than 100 µM each time. Moreover, the TGI in test [16], in test [17] and in test [18] was more than 100 µM in each case.

As to `CC12CCC(=O)N1[C@@H](c1ccccc1)[C@@H](c1ccccc1)O2` (some centres not stated), the TGI in test [2], in test [6], in test [7], in [9], in test [10] and in test [11] was more than 100 µM each time. Moreover, the TGI in [19], in test [12], in test [14], in [15], in test [16] and in test [17] was more than 100 µM throughout.

Regarding `Cc1c(N)c(C#N)c2n(C)c3ncccc3n2c1=O`, the TGI in test [2], in test [3], in test [5], in test [6], in [7] and in test [8] was more than 100 µM in each case. Also, the TGI in [9], in test [10], in [11], in test [19], in test [12] and in test [14] was more than 100 µM throughout. Also, the TGI in test [15], in test [16], in test [17] and in [18] was more than 100 µM in each case.

Turning to `C=C1C(=O)O[C@H]2C(=O)[C@H](C)CCC/C(C)=C/CC[C@@]3(C)O[C@@H]3C[C@@H]12`, the TGI in test [1] turned out to be 5.82 µM; in test [2], 16.4 µM; in test [4], 40.5 µM; in test [5], 1.65 µM; in test [6], 3.23 µM; in test [7] it was 33.3 µM. Also, the TGI in test [9] was 2.63 µM; in test [10], 3.54 µM; in [11], 3.54 µM; in test [19], 2.99 µM; in test [12] it was 3.12 µM; in test [13] it was 28.4 µM. Moreover, the TGI amounted to 4.18 µM in [14], 24.1 µM in [15], 10.2 µM in test [16] and 30.8 µM in test [17].

Take `CCOC(=O)/C1=C(\C)N(Cc2ccccc2)C(=O)c2ccccc2C(=O)c2c(OC(C)=O)ccc(OC(C)=O)c21`: the TGI in [1], in test [2], in test [3], in test [4], in test [5] and in [6] was more than 100 µM in each case. For the same molecule, the TGI was 90.9 µM in test [8]; more than 100 µM in test [9]; more than 100 µM in test [10]; more than 100 µM in [11]; 43.9 µM in [19]; more than 100 µM in test [12]. Also, the TGI in [13] is more than 100 µM; in test [14], more than 100 µM; in test [15] it was more than 100 µM; in test [16] it was more than 100 µM; in [17], more than 100 µM; in test [18], 93 µM.

Take `Cc1cc(N(C)c2ccccc2)nc(N(C)c2ccccc2)n1`: the TGI in test [1] is more than 100 µM; in [2], more than 100 µM; in test [3], 98 µM; in test [4], more than 100 µM; in test [5], more than 100 µM; in test [6] it was more than 100 µM. Besides, the TGI in test [7] is 96 µM; in [8], more than 100 µM; in test [9], 95.7 µM; in test [10], more than 100 µM; in test [11], 49.1 µM; in test [12], more than 100 µM. In addition, the TGI was more than 100 µM in test [13]; 46.5 µM in test [14]; more than 100 µM in test [15]; more than 100 µM in test [16]; more than 100 µM in test [17]; 59.5 µM in [18].

For `CCN(CC)CC(C(C)=O)C(c1ccccc1)c1c(O)c2ccccc2oc1=O` (configuration not stated), the TGI in test [2], in test [3], in test [5], in test [6], in test [7] and in test [8] was more than 100 µM each time. In addition, the TGI in test [9], in test [10], in [11], in [12], in [14] and in test [15] was more than 100 µM in each case. The TGI in test [16], in test [17] and in [18] was more than 100 µM in each case.

For the molecule `O=S(=O)(N=[Se](=O)(c1ccccc1)c1ccccc1)c1ccccc1`, the TGI in test [1], in test [2], in [3], in test [4], in test [5] and in test [6] was more than 100 µM each time. The TGI in test [7], in test [8], in test [9], in [10], in [11] and in test [19] was more than 100 µM in each case. For the same molecule, the TGI in [12], in [13], in test [14], in test [15], in test [16] and in [17] was more than 100 µM in each case.
